Assay results: the supplement of paper PMC10307832

Legend:
Test in all cases: relative viability (nuclei count vs DMSO), 5 days (fraction); higher = more cells survive
Zosuquidar + Crizotinib = compound: O[C@@H](COc1cccc2ncccc12)CN1CCN([C@@H]2c3ccccc3[C@@H]3[C@H](c4ccccc42)C3(F)F)CC1 [Zosuquidar] + C[C@@H](Oc1cc(-c2cnn(C3CCNCC3)c2)cnc1N)c1c(Cl)ccc(F)c1Cl [Crizotinib] (partner 1 µM)
Outline: (§1)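 For relative viability, nuclei counts in treated wells were divided by those in vehicle wells. Lung cancer cell lines had been pin-tool dosed in 1536-well plates the day after seeding and cultured for 5 days, then fixed and stained in one step (final 0.05% Triton X-100, 1% formaldehyde, 1 ug/ml Hoechst) and imaged at 4×. Doses were one drug alone or a fixed anchor-drug dose plus five library-drug doses (not always all listed) in √10 steps, and values are duplicate-plate medians.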

[1] = compound: COc1cc2nccc(Oc3ccc(NC(=O)C4(C(=O)Nc5ccc(F)cc5)CC4)cc3)c2cc1OC [Cabozantinib] + CC(C)C[C@H](NC(=O)[C@H](Cc1ccccc1)NC(=O)c1cnccn1)B(O)O [Bortezomib] (partner 0.002 µM)
Outline: as §1

Zosuquidar + Foretinib = compound: O[C@@H](COc1cccc2ncccc12)CN1CCN([C@@H]2c3ccccc3[C@@H]3[C@H](c4ccccc42)C3(F)F)CC1 [Zosuquidar] + COc1cc2c(Oc3ccc(NC(=O)C4(C(=O)Nc5ccc(F)cc5)CC4)cc3F)ccnc2cc1OCCCN1CCOCC1 [Foretinib] (partner 0.25 µM)
Outline: as §1

Zosuquidar + Lapatinib = compound: O[C@@H](COc1cccc2ncccc12)CN1CCN([C@@H]2c3ccccc3[C@@H]3[C@H](c4ccccc42)C3(F)F)CC1 [Zosuquidar] + CS(=O)(=O)CCNCc1ccc(-c2ccc3ncnc(Nc4ccc(OCc5cccc(F)c5)c(Cl)c4)c3c2)o1 [Lapatinib] (partner 2 µM)
Outline: as §1

Row | Cell Line | relative viability (Zosuquidar + Crizotinib; first compound 0.01 µM) | relative viability (Zosuquidar + Crizotinib; first compound 0.03162 µM) | relative viability (Zosuquidar + Crizotinib; first compound 0.3162 µM) | relative viability (Zosuquidar + Crizotinib; first compound 1 µM) | relative viability ([1]; first compound 0.06325 µM) | relative viability ([1]; first compound 0.2 µM) | relative viability ([1]; first compound 0.6325 µM) | relative viability ([1]; first compound 2 µM) | relative viability (Zosuquidar + Foretinib; first compound 0.01 µM) | relative viability (Zosuquidar + Foretinib; first compound 0.03162 µM) | relative viability (Zosuquidar + Foretinib; first compound 0.1 µM) | relative viability (Zosuquidar + Foretinib; first compound 0.3162 µM) | relative viability (Zosuquidar + Foretinib; first compound 1 µM) | relative viability (Zosuquidar + Lapatinib; first compound 0.01 µM) | relative viability (Zosuquidar + Lapatinib; first compound 0.03162 µM) | relative viability (Zosuquidar + Lapatinib; first compound 0.3162 µM) | relative viability (Zosuquidar + Lapatinib; first compound 1 µM) | relative viability (Zosuquidar + Crizotinib; first compound 0.1 µM) | relative viability ([1]; first compound 0.02 µM) | relative viability (Zosuquidar + Lapatinib; first compound 0.1 µM)
1 | LCLC-97TM1 | 0.389 | 0.327 | 0.429 | 0.339 | 1.02 | 0.653 | 0.967 | 0.96 | 0.922 | 0.929 | 0.9 | 1.01 | 0.974 | 1.07 | 1.13 | 1.27 | 0.881 | – | – | –
2 | LU99A | 0.499 | 0.671 | 0.607 | 0.571 | 1.16 | 1.17 | 0.986 | 1.06 | 0.784 | 0.931 | 0.813 | 0.855 | 0.814 | 0.918 | 0.954 | 1.05 | 0.982 | 0.484 | 1.13 | 1.11
3 | NCI-H1299 | 0.938 | 1.01 | 0.982 | 0.928 | 1.03 | 1.03 | 1.01 | 1.05 | 1.09 | 1.08 | 1.15 | 1.14 | 1.06 | 0.971 | 0.981 | 1.01 | 0.958 | 1.03 | 1.01 | 0.944
4 | NCI-H1355 | 1.05 | 0.997 | 1.15 | 1.05 | 1.29 | 1.12 | 1.23 | 1.18 | 0.951 | 0.989 | 0.9 | 1.02 | 0.923 | 0.993 | 1 | 1.11 | 1 | 0.987 | 1.05 | 0.759
5 | HARA | 0.924 | 1.03 | 1.09 | 1.07 | 1.19 | 0.975 | 1.18 | 1.11 | 0.857 | – | 0.883 | 0.866 | 0.999 | 0.806 | 0.69 | 0.932 | 0.879 | 1.14 | 1.18 | 0.676
6 | ChaGo-K-1 | 1.08 | 1.2 | 1.1 | 1.13 | 1.25 | 0.909 | 0.804 | 1.04 | 0.905 | 0.994 | 0.873 | 0.909 | 0.943 | – | – | – | – | 1.32 | 0.829 | –
7 | SK-MES-1 | 0.977 | 0.99 | 1.03 | 1.02 | – | – | – | – | 0.891 | 0.872 | 0.879 | 1.05 | 0.94 | 0.448 | 0.401 | 0.495 | 0.517 | 0.955 | – | 0.445
8 | A549 | 0.805 | 0.738 | 0.722 | 0.765 | – | – | – | – | 0.879 | 0.84 | 0.906 | 0.983 | 0.956 | 0.958 | 0.935 | 0.977 | 0.94 | 0.844 | – | 0.984
9 | NCI-H1623 | – | – | – | – | – | – | – | – | 0.868 | 0.832 | 0.821 | 0.933 | 0.803 | – | – | – | – | – | – | –
10 | HCC-44 | 0.761 | 0.828 | 0.846 | 0.804 | 0.968 | 0.877 | 0.946 | 0.943 | – | – | – | – | – | 0.948 | 1.08 | 0.967 | 1.06 | 0.84 | 1.01 | 1.05
11 | NCI-H358 | 0.602 | 0.497 | 0.497 | 0.532 | – | – | – | – | 0.654 | 0.615 | 0.719 | 0.598 | 0.702 | 0.475 | 0.415 | 0.55 | 0.492 | 0.807 | – | 0.366
12 | NCI-H2342 | – | – | – | – | – | – | – | – | 1.1 | 1.18 | 0.878 | 1 | 1.06 | – | – | – | – | – | – | –
13 | LK-2 | 0.237 | 0.218 | 0.274 | 0.224 | – | – | – | – | 1.32 | 1.03 | 1.3 | 1.05 | 1.23 | 0.985 | 0.892 | 1.18 | 0.946 | 0.28 | – | 0.923
14 | NCI-H1792 | 0.912 | 0.771 | 0.954 | 0.977 | 1.19 | 0.858 | 0.946 | 0.975 | – | – | – | – | – | 0.9 | 0.893 | 0.839 | 0.795 | 0.776 | 0.848 | 0.837
15 | LCLC-103H | 1.07 | 1.09 | 0.892 | 0.989 | 1.12 | 1.14 | 1.03 | 1.03 | 0.694 | 0.678 | 0.698 | 0.844 | 0.809 | – | – | – | – | 0.991 | 1.09 | –
16 | NCI-H441 | 0.681 | 0.788 | – | 0.742 | 0.494 | 0.776 | 0.76 | 0.385 | 1.06 | 1.01 | 0.866 | 1.03 | 1.2 | – | – | – | – | 0.689 | – | –
17 | NCI-H2170 | 1.18 | 1.22 | 1.19 | 1.17 | – | – | – | – | 0.979 | 1.02 | 0.993 | 1.02 | 1.02 | 0.256 | 0.282 | 0.308 | 0.283 | 1.21 | – | 0.256
18 | SW 900 | – | – | – | – | – | – | – | – | 0.761 | 0.86 | 0.819 | 0.952 | 0.854 | – | – | – | – | – | – | –
19 | NCI-H1944 | 1.03 | 1.09 | 1.04 | 1.12 | – | – | – | – | 0.774 | 0.862 | 0.898 | 0.883 | 0.824 | 0.822 | 0.797 | 0.925 | 0.794 | 1.03 | – | 0.585
20 | NCI-H1395 | – | – | – | – | – | – | – | – | 0.98 | 0.957 | 0.824 | 1.06 | 1 | 1.03 | 0.903 | 1.54 | 1.04 | – | – | 0.957
21 | NCI-H1793 | – | – | – | – | – | – | – | – | 0.747 | 0.914 | – | 0.896 | 0.641 | 0.916 | 0.625 | 0.835 | 1.11 | – | – | –
